# Patent US20250340885A1, “COMPOSITIONS AND METHODS FOR MODULATING CONDITIONS ASSOCIATED WITH ALTERED ATP8B1 FUNCTION” (CLEVELAND STATE UNIVERSITY, priority 2024, published 2025)
# Structures can show the parent of a compound that is named as a salt.
# Assays:
# human ATP8B1 = target: T1, human ATP8B1 (Homo sapiens, UniProt O43520); test: Phospholipid-stimulated ATPase activity of full-length ATP8B1; format: biochemical
# T1 sequence (O43520 1-1251): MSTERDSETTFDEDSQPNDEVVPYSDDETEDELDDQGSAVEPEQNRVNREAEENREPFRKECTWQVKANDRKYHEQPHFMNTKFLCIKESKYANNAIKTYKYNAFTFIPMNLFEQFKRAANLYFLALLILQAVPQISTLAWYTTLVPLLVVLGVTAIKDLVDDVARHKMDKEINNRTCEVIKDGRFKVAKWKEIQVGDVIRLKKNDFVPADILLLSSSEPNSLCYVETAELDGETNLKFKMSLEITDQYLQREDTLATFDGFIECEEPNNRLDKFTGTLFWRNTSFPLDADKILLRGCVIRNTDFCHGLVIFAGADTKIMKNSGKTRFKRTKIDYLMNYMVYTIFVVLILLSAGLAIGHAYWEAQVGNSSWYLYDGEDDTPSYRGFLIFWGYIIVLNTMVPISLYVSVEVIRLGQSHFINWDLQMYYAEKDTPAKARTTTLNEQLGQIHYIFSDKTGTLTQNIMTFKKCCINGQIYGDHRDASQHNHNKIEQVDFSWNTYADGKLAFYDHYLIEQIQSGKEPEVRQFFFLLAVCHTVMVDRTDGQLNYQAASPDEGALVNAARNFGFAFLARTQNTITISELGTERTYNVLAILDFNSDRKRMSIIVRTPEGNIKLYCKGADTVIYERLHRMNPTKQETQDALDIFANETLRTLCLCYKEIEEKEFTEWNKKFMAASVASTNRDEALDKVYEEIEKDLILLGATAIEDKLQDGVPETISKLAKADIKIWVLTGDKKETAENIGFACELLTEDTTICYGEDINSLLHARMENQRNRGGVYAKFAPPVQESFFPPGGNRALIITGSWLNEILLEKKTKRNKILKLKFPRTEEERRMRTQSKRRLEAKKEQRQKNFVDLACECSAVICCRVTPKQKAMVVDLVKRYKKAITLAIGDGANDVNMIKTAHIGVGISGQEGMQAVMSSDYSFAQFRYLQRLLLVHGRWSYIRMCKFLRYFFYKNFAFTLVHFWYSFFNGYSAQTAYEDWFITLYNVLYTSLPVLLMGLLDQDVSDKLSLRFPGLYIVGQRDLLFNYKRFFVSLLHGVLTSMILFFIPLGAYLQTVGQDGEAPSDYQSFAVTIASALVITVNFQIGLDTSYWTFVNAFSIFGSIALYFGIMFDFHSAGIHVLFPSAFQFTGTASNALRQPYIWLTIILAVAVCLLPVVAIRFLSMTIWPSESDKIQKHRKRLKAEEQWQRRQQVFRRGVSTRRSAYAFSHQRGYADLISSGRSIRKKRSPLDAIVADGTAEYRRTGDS
# Protocol: FIG. 8E is a bar graph showing ATPase activity of ATP8B1 in presence of various lipids (300 µM).
# FIG. 8F is a graph showing phospholipid concentration-dependent ATPase activity of ATP8B1. Graph representing data points of three independent experiments, values are mean±SD and fitted by a non-linear dose-dependent curve.
# ATP8B1 deletion may affect PIP2 translocation due to changes in membrane properties or by indirectly influencing the activity of other proteins involved in lipid trafficking. To determine if ATP8B1 can directly flip PIP2, a cell-free system was reconstituted. The GST-tagged human ATP8B1 protein was cloned in a baculovirus, followed by transduction of insect Sf9 cells, and expression was confirmed by western blot using anti-GST antibody.
# (§1) Next, we utilized reconstituted ATP8B1-proteoliposomes with NBD-labeled phospholipids and sodium dithionite quenching assay to measure phospholipid flip (FIG. 8G), as described before. A marked decrease in the fluorescence intensity of NBD-PIP2 was observed following dithionite quenching of ATP8B1 containing proteoliposomes vs. control liposomes, with ˜12% NBD-PIP2 flip in 5 min, ˜22% NBD-PIP2 flip in 30 min, and ˜27% NBD-PIP2 flipped in 60 min (FIG. 8H, 8I).
# GsdmD = target: T2, GsdmD (Homo sapiens, UniProt P57764); conditions: cited from earlier work
# T2 sequence (P57764 1-484): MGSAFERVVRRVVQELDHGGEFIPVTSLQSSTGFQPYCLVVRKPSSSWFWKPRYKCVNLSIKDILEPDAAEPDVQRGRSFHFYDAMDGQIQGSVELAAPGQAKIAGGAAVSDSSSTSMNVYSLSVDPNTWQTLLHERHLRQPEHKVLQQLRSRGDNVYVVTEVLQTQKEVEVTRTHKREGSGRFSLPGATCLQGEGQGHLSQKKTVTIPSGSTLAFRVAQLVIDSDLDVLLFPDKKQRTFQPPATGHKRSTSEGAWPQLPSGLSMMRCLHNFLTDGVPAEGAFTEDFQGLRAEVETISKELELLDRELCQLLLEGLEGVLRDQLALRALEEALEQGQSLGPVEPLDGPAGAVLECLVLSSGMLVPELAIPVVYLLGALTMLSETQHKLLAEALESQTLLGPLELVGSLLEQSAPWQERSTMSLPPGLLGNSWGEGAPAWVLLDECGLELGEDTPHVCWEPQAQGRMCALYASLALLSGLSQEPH
# ATP8B1 proteoliposomes = target: T3, ATP8B1 proteoliposomes (Homo sapiens, UniProt O43520); test: NBD-phospholipid flip in ATP8B1 proteoliposomes, sodium dithionite quenching assay; format: biochemical; conditions: proteoliposomes vs. empty liposomes
# T3 construct: The ATPase activity of full-length ATP8B1 was determined in the presence of various phospholipids; GST; made in house; host or cells: Sf9 insect cells (baculovirus)
# T3 sequence (O43520 1-1251): T1 sequence (O43520 1-1251)
# Protocol: FIG. 8G is a schematic diagram for PIP2 flip assay in ATP8B1 proteoliposomes vs. empty liposomes.
# FIG. 8H is a graph showing sodium dithionite quenching of NBD-PIP2 on the outer side of the proteoliposomes vs. empty liposomes over 10 min, Triton-X-100 was used to quench all the remaining NBD-PIP2.
# FIG. 8I is a graph showing the percentage PIP2 flipped over time in proteoliposomes vs. empty liposomes±sodium dithionite, ±Triton-X-100, data are from 3 independent experiments, values are mean±SD, **** show p<0.0001 by t-test.
# FIG. 8J is a graph showing sodium dithionite quenching of NBD-PE on the outer side of the proteoliposomes vs. empty liposomes over 10 min, Triton-X-100 was used to quench the remaining inner leaflet NBD-PE.
# FIG. 8K is a bar graph showing the percentage PE flip over time in proteoliposomes vs. empty liposomes±Sodium dithionite, ±Triton-X-100. […]
# as §1
# [1] = tested on: HepG2 cells (WT or ATP8b1−/−); test: Confocal-microscopy-based NBD-phospholipid flip assay with BSA back-exchange; format: cell-based, human; conditions: after BSA wash, up to 60 min
# Protocol: (§2) FIG. 8A is an image of WT or ATP8b1^−/− HepG2 cells pre-incubated with phospholipase inhibitors at 20° C. were supplemented with NBD-PIP2 followed by incubation for up to 60 min to allow lipid internalization. Cells were subjected to back-exchange with BSA, followed by TBSS wash, and visualization by confocal laser scanning microscopy. FIRE look-up table (ImageJ) was used to highlight intensity variations in PIP2 flip. Images are representative of three independent experiments. Scale bar: 20 μm.
# as §2, with “8B” for “8A”, “NBD-PE” for “NBD-PIP2”
# FIG. 8C is a graph showing quantification of flipped NBD-PIP2 in WT and ATP8b1^−/− HePG2 cells (N=25 cells, values are mean±SD; **** show p<0.0001 by t-test.
# FIG. 8D is a graph showing quantification of flipped NBD-PE in WT and ATP8b1^−/− HePG2 cells (N=25 cells, values are mean±SD; **** show p<0.0001 by t-test. […]
compound,measurement,setting,value
"CCCCCCCC/C=C\CCCCCCCC(=O)OC[C@H](COP(=O)(O)O[C@@H]1[C@H](O)[C@H](O)[C@@H](OP(=O)(O)O)[C@H](OP(=O)(O)O)[C@H]1O)OC(=O)CCCCCCC/C=C\CCCCCCCC [PIP2, phosphatidylinositol-4,5-bisphosphate]",ATPase activity of full-length ATP8B1,human ATP8B1; 300 μM lipid,notable increase in ATPase activity
COC(=O)/C=C/C(=O)OC [dimethyl fumarate],effect on GsdmD,GsdmD,promotes succination of GsdmD
NBD-PE,NBD-lipid flip,ATP8B1 proteoliposomes,No significant changes
same,flip of NBD-lipid in ATP8B1−/− vs. WT cells,[1],no differences
phosphatidylcholine [PC],EC50 of stimulated activity of ATP8B1 relative to PIP2,human ATP8B1; higher than PIP2,1.75 fold
